From the NIST ThermoML archive (doi:10.1021/je7006956)

Experiments:
[1] = for mass density: 101.33 kPa, Pycnometric method; for mass density / viscosity: Liquid
[2] = cn = amount concentration of the nth substance listed, in mol/dm3; details: 101 kPa, Liquid, Pycnometric method

O=C(c1ccccc1)N(O)c1ccccc1 [N-phenylbenzohydroxamic acid]
Details | Normal melting temperature [°C]
[1], Crystal, visual observation | 121.00

C[S+](C)[O-] [dimethyl sulfoxide]
[1]
Details | mass density [kg/m3] | viscosity [mPa·s]
298.15 K | 1094.75 | 1.993
303.15 K | 1090.76 | 1.801
308.15 K | 1086.06 | 1.652
313.15 K | 1080.45 | 1.516
318.15 K | 1075.26 | 1.398

O=C(c1ccccc1)N(O)c1ccccc1 [N-phenylbenzohydroxamic acid] + C[S+](C)[O-]
mass density [kg/m3], [2]
Details | c1 = 0.0469 | c1 = 0.0938 | c1 = 0.1408 | c1 = 0.1877 | c1 = 0.2347 | c1 = 0.2816 | c1 = 0.3286 | c1 = 0.3755 | c1 = 0.4225 | c1 = 0.4694
298.15 K | 1097.23 | 1098.39 | 1098.59 | 1099.36 | 1100.14 | 1100.75 | 1101.46 | 1102.02 | 1102.75 | 1102.8
303.15 K | 1093.69 | 1094.33 | 1094.95 | 1096.03 | 1097.27 | 1098.29 | 1098.91 | 1099.88 | 1100.55 | 1100.96
308.15 K | 1089.07 | 1090.08 | 1091.61 | 1091.83 | 1093.14 | 1094.08 | 1095.64 | 1096.52 | 1097.67 | 1098.81
313.15 K | 1084.72 | 1086.26 | 1086.93 | 1087.56 | 1088.34 | 1089.59 | 1090.74 | 1091.97 | 1093.11 | 1094.24
318.15 K | 1078.8 | 1080.58 | 1081.55 | 1082.82 | 1083.33 | 1084.33 | 1085.8 | 1086.86 | 1087.92 | 1089.02
